Here are results for 24 compounds from patent publication US8461328B2, “Tricyclic heterocyclic compounds, compositions and methods of use thereof” (Genentech, Inc., priority 2010, dated 2013).

Holding throughout (type): biochemical
The target of test [1] is T1, JAK2 (Homo sapiens, UniProt O60674).
T1 construct: made in house; host or cells: SF9 insect cells (baculovirus)
The test is described as follows: JAK2 inhibition (Table 4). To be noted: read-out: JAK2 Ki.

For test [2], the target named is T2, TYK2 (Homo sapiens, UniProt P29597).
T2 construct: made in house; host or cells: SF9 insect cells (baculovirus)
T2 sequence (P29597 873-1187): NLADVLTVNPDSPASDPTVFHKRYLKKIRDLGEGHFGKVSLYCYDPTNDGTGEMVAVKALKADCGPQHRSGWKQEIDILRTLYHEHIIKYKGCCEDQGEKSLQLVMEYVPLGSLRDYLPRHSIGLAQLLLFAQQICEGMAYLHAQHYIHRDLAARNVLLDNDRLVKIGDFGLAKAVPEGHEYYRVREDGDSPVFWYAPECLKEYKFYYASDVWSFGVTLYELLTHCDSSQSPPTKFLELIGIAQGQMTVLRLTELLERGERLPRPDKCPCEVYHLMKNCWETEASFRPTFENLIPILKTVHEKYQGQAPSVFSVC
Nature of the test: TYK2 inhibition (Table 4).

The target in test [3] is T3, JAK3 (Homo sapiens, UniProt P52333).
T3 construct: made in house; host or cells: SF9 insect cells (baculovirus)
T3 sequence (P52333 783-1124): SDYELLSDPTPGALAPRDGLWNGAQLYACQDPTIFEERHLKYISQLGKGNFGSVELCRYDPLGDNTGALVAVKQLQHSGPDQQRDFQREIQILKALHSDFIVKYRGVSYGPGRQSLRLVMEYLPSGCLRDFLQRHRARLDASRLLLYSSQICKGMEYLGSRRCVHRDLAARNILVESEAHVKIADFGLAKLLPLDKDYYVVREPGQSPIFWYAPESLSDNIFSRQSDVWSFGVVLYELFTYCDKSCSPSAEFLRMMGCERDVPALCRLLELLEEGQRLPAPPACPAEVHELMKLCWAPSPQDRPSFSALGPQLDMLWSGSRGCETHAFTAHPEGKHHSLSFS
The test is described as follows: JAK3 inhibition (Table 4). To be noted: read-out: JAK3 Ki.

The target in test [4] is T4, JAK1 (Homo sapiens, UniProt P23458).
T4 construct: made in house; host or cells: SF9 insect cells (baculovirus)
T4 sequence (P23458 852-1154): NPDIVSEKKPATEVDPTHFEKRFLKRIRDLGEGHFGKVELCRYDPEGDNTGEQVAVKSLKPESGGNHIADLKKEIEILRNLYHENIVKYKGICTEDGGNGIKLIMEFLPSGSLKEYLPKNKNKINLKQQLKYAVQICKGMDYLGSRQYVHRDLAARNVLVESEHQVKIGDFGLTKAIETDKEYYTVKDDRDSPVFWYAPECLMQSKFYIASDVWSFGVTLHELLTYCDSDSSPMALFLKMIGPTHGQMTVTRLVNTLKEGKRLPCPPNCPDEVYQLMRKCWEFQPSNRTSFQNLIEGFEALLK
The test is described as follows: JAK1 inhibition (Table 4). To be noted: read-out: JAK1 Ki.

T1 sequence (O60674 812-1132): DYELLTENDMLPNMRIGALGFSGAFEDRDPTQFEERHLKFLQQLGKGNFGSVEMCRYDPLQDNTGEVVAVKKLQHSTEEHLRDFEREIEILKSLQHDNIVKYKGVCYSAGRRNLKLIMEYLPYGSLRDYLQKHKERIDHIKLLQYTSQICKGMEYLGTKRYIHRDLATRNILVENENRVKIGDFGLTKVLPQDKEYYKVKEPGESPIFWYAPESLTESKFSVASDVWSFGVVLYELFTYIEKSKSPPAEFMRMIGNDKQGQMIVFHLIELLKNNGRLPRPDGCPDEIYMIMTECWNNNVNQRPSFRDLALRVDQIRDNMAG

Usually Ki stands for a measure of affinity in units of concentration, obtained from inhibition or displacement. Take `CC(C)CC(=O)NC1CCC(n2nnc3cnc4[nH]ccc4c32)CC1` (stereo not drawn) [Example 883, 3-Methyl-N-[4-(6H-1,2,3,5,6-pentaaza-as-indacen-1-yl)-cyclohexyl]-butyramide]: the Ki was 15.8 nM in test [1], 244 nM in test [2], 89.3 nM in test [3] and 4.61 nM in test [4].

As for `O=C(NC1CCC(n2cnc3cnc4[nH]ccc4c32)CC1)c1cccnc1` (stereo not drawn) [Example 884, N-[4-(6H-1,3,5,6-Tetraaza-as-indacen-1-yl)-cyclohexyl]-nicotinamide], the Ki in test [1] was determined as 6.39 nM; in test [2], 44 nM; in test [3], 86.3 nM; in test [4], 5.17 nM.

As to `Cc1nc2cnc3[nH]ccc3c2n1[C@@H]1CCCC(=O)C1` [Example 885, (R)-3-(2-Methyl-6H-1,3,5,6-tetraaza-as-indacen-1-yl)-cyclohexanone], the Ki was determined as 23.8 nM in test [1], 33 nM in test [2], 47.8 nM in test [3] and 6.16 nM in test [4].

As to `Cc1nc2cnc3[nH]ccc3c2n1[C@H]1CCC[C@](C)(O)C1` [Example 886, (1S,3S)-1-Methyl-3-(2-methyl-6H-1,3,5,6-tetraaza-as-indacen-1-yl)-cyclohexanol], the Ki in test [1] turned out to be 16.7 nM; in test [2], 52.8 nM; in test [3], 41.7 nM; in test [4], 10.3 nM.

Take `COCC(=O)NC1CCC(n2cnc3cnc4[nH]ccc4c32)CC1` (stereo not drawn) [Example 887, 2-Methoxy-N-[4-(6H-1,3,5,6-tetraaza-as-indacen-1-yl)-cyclohexyl]-acetamide]: the Ki in test [1] was 23.9 nM; in test [2] it was 79 nM; in test [3], 193 nM; in test [4], 11.1 nM.

`Cc1nc2cnc3[nH]ccc3c2n1[C@H]1CCC[C@@](C)(O)C1` [Example 888, (1R,3S)-1-Methyl-3-(2-methyl-6H-1,3,5,6-tetraaza-as-indacen-1-yl)-cyclohexanol]: the Ki in test [1] amounted to 17.7 nM; in test [2], 40.9 nM; in test [3], 14 nM; in test [4], 12.8 nM.

In the case of `COC1CCCC(n2c(C)nc3cnc4[nH]ccc4c32)C1` (stereo not drawn) [Example 889, 1-(3-Methoxy-cyclohexyl)-2-methyl-1,6-dihydro-1,3,5,6-tetraaza-as-indacene], the Ki in test [1] is 337 nM; in test [2] it was 96.5 nM; in test [3] it was 335 nM; in test [4], 36.2 nM.

As for `Cc1nc2cnc3[nH]ccc3c2n1[C@@H]1CCC[C@](C)(O)C1` [Example 890, (1S,3R)-1-Methyl-3-(2-methyl-6H-1,3,5,6-tetraaza-as-indacen-1-yl)-cyclohexanol], the Ki in test [1] amounted to 38.1 nM; in test [2], 133 nM; in test [3], 36.9 nM; in test [4] it was 37.6 nM.

Take `C[C@@H](O)c1nc2cnc3[nH]ccc3c2n1N1CCOCC1` [Example 891, (R)-1-(1-Morpholin-4-yl-1,6-dihydro-1,3,5,6-tetraaza-as-indacen-2-yl)-ethanol]: the Ki came out at 543 nM in test [1], 165 nM in test [2], 240 nM in test [3] and 65 nM in test [4].

With `Cc1nc2cnc3[nH]ccc3c2n1[C@@H]1CCC[C@@](C)(O)C1` [Example 892, (1R,3R)-1-Methyl-3-(2-methyl-6H-1,3,5,6-tetraaza-as-indacen-1-yl)-cyclohexanol], the Ki in test [1] was determined as 145 nM; in test [2], 114 nM; in test [3], 130 nM; in test [4] it was 82.1 nM.

As for `C[C@@H](O)c1nc2cnc3[nH]ccc3c2n1[C@H]1CCN(CCC#N)C1` [Example 893, 3-{(S)-3-[2-((R)-1-Hydroxy-ethyl)-6H-1,3,5,6-tetraaza-as-indacen-1-yl]-pyrrolidin-1-yl}-propionitrile], the Ki was 49.2 nM in test [1], 9.49 nM in test [2], 60.7 nM in test [3] and 4.9 nM in test [4].

Consider `Cc1cc(CN2CCC(n3c(C(C)O)nc4cnc5[nH]ccc5c43)C(F)C2)on1` (stereo not drawn) [Example 895, 1-{1-[3-Fluoro-1-(3-methyl-isoxazol-5-ylmethyl)-piperidin-4-yl]-1,6-dihydro-1,3,5,6-tetraaza-as-indacen-2-yl}-ethanol], for which the Ki in test [1] stood at 19.1 nM; in test [2], 99.1 nM; in test [3], 3.34 nM; in test [4], 1.27 nM.

`C[C@@H](O)c1nc2cnc3[nH]ccc3c2n1C1CCN(Cc2ccn[nH]2)CC1` [Example 896, (R)-1-{1-[1-(2H-Pyrazol-3-ylmethyl)-piperidin-4-yl]-1,6-dihydro-1,3,5,6-tetraaza-as-indacen-2-yl}-ethanol]: the Ki in test [1] was determined as 21.4 nM; in test [2] it was 56.7 nM; in test [3], 6.89 nM; in test [4], 1.72 nM.

As for `OCc1nc2cnc3[nH]ccc3c2n1C1CCN(CC(F)F)CC1` [Example 897, {1-[1-(2,2-Difluoro-ethyl)-piperidin-4-yl]-1,6-dihydro-1,3,5,6-tetraaza-as-indacen-2-yl}-methanol], the Ki in test [1] was 9.44 nM; in test [2], 4.42 nM; in test [3], 13.2 nM; in test [4], 1.9 nM.

With `C[C@@H](O)c1nc2cnc3[nH]ccc3c2n1C1CCN(Cc2cnco2)CC1` [Example 898, (R)-1-[1-(1-Oxazol-5-ylmethyl-piperidin-4-yl)-1,6-dihydro-1,3,5,6-tetraaza-as-indacen-2-yl]-ethanol], the Ki in test [1] was 54.4 nM; in test [2] it was 96.7 nM; in test [3], 12.9 nM; in test [4], 2.09 nM.

For the compound `Cc1cc(CN2CCC(n3c([C@@H](C)O)nc4cnc5[nH]ccc5c43)CC2)no1` [Example 899, (R)-1-{1-[1-(5-Methyl-isoxazol-3-ylmethyl)-piperidin-4-yl]-1,6-dihydro-1,3,5,6-tetraaza-as-indacen-2-yl}-ethanol], the inhibition constant (Ki) in test [1] was found to be 32.1 nM; in test [2], 140 nM; in test [3] it was 6.73 nM; in test [4], 3.32 nM.

For `CCn1ncc(CN2CCC(n3c([C@@H](C)O)nc4cnc5[nH]ccc5c43)CC2)c1C` [Example 900, (R)-1-{1-[1-(1-Ethyl-5-methyl-1H-pyrazol-4-ylmethyl)-piperidin-4-yl]-1,6-dihydro-1,3,5,6-tetraaza-as-indacen-2-yl}-ethanol], the Ki amounted to 494 nM in test [1], 2010 nM in test [2], 130 nM in test [3] and 18 nM in test [4].

Turning to `Cc1nc2ncccn2c1CN1CCC(n2c([C@@H](C)O)nc3cnc4[nH]ccc4c32)CC1` [Example 901, (R)-1-{1-[1-(2-Methyl-imidazo[1,2-a]pyrimidin-3-ylmethyl)-piperidin-4-yl]-1,6-dihydro-1,3,5,6-tetraaza-as-indacen-2-yl}-ethanol], the Ki was 139 nM in test [1], 223 nM in test [2], 72.5 nM in test [3] and 25 nM in test [4].

For the compound `Cc1nc(CN2CCC(n3c([C@@H](C)O)nc4cnc5[nH]ccc5c43)CC2)c[nH]1` [Example 902, (R)-1-{1-[1-(2-Methyl-1H-imidazol-4-ylmethyl)-piperidin-4-yl]-1,6-dihydro-1,3,5,6-tetraaza-as-indacen-2-yl}-ethanol], the Ki in test [1] was 1230 nM; in test [2] it was 2670 nM; in test [3] it was 478 nM; in test [4], 25.5 nM.

In the case of `Cc1nc(CN2CCC(n3c([C@@H](C)O)nc4cnc5[nH]ccc5c43)CC2)c(C)o1` [Example 903, (R)-1-{1-[1-(2,5-Dimethyl-oxazol-4-ylmethyl)-piperidin-4-yl]-1,6-dihydro-1,3,5,6-tetraaza-as-indacen-2-yl}-ethanol], the Ki turned out to be 323 nM in test [1], 542 nM in test [2], 88.9 nM in test [3] and 33.9 nM in test [4].

Consider `CC(O)c1nc2cnc3[nH]ccc3c2n1C1CC2CCC1O2` (stereo not drawn) [Example 906, 1-[1-(7-Oxa-bicyclo[2.2.1]hept-2-yl)-1,6-dihydro-1,3,5,6-tetraaza-as-indacen-2-yl]-ethanol], for which the Ki in test [1] came out at 271 nM; in test [2], 119 nM; in test [3] it was 273 nM; in test [4], 51.8 nM.

On to `CCN1CCC(n2c(CCNC(=O)OC)nc3cnc4[nH]ccc4c32)C(F)(F)C1` (stereo not drawn) [Example 908, {2-[1-(1-Ethyl-3,3-difluoro-piperidin-4-yl)-1,6-dihydro-1,3,5,6-tetraaza-as-indacen-2-yl]-ethyl}-carbamic acid methyl ester], for which the Ki in test [1] amounted to 37.1 nM; in test [2], 282 nM; in test [3], 16.3 nM; in test [4], 6.07 nM.

On to `CCN1CC[C@@H](n2c(CNS(C)(=O)=O)nc3cnc4[nH]ccc4c32)[C@@H](F)C1` [Example 909, N-[1-((3S,4R)-1-Ethyl-3-fluoro-piperidin-4-yl)-1,6-dihydro-1,3,5,6-tetraaza-as-indacen-2-ylmethyl]-methanesulfonamide], for which the Ki worked out at 128 nM in test [1], 352 nM in test [2], 213 nM in test [3] and 7.08 nM in test [4].

As for `Cc1nc2cnc3[nH]ccc3c2n1C1CNCCOC1` (stereo not drawn) [Example 910, 2-Methyl-1-[1,4]oxazepan-6-yl-1,6-dihydro-1,3,5,6-tetraaza-as-indacene], the Ki in test [1] was 212 nM; in test [2], 213 nM; in test [3], 323 nM; in test [4] it was 50.2 nM.
